According to patent US7083809B2, “Purified cytokine inhibitory factor” (Arkion Life Sciences, LLC, priority 2002, dated 2006):

Columns and labels:
[1] = tested on: TNF-α; assay: LPS-induced cytokine mRNA inhibition assay in THP1 monocytes (RT-PCR); format: cell-based, human; conditions: THP1 cells, culture medium
[2] = tested on: IL-1β; assay: as above; format: cell-based, human; conditions: THP1 cells
[3] = tested on: PGE2 biosynthesis; assay: Inhibition of PGE2 biosynthesis in LPS-stimulated RAW 264.7 cells (EIA); format: cell-based, mouse
Description: The assay began with overnight induction of COX-2 through mitogenic (LPS) stimulation of RAW 264.7 cell monolayers. The cell monolayers were then exposed to a test article (e.g. indomethacin) for 30 min at 37° C., and then an exogenous source of arachidonic acid was provided to the system. COX1 and COX2 (in addition to a PGE2 specific synthetase) converted the exogenous arachidonic acid to PGE2. Prostaglandin E2 in the culture medium was then quantified by a commercial EIA system. When less PGE2 was recovered from culture medium containing a test article than was recovered from culture medium alone, the condition was labeled inhibition.
Assay procedure: 5×10^6 Cells in DMEM medium were seeded and incubated in a 37° C., 5% CO2 incubator overnight. At approximately 24 h growth of cells seeded on day 1 (usually 90–100% confluence), growth medium was aseptically decanted and discarded. 10 ml sterile PBSA was gently pipetted into flasks against a non-growth surface, and the cells were washed twice. 10 ml DMEM containing LPS (2 ng/ml) was added to the tested flasks. Flasks were placed in a 37° C., 5% CO2 incubator overnight for 16 h.
At 16 h post-initial LPS exposure, growth medium was aseptically removed (suction) and discarded. 10 ml sterile PBSA was gently pipetted into flasks against a non-growth surface, and the cells were washed twice. Cells were incubated in the presence of 2 ml PBSA, 2 ml positive control drugs, or 2 ml yolk lipids sample (1.0 mg/ml) at 37° C. After 30 min incubation, 222 μl of 300 ΞM arachidonic acid was added to every flask. Cells were incubated for an additional 15 min at 37° C. in presence of the 30 μM arachidonic acid. After the 15 min incubation, 50 μl of 1 mg/ml indomethacin was added to contents of flask to stop the reaction. All fluids from flasks were collected into appropriately labeled polypropylene tubes.
Prostaglandin E2 was assayed with the commercial ELISA kit (Amersham RPN222) at room temperature following the standard protocol.

[4] = tested on: murine macrophage; conditions: cited from earlier work
[5] = 20 cancer patients, intravenous pretreatment followed by intravenous endotoxin; cited from earlier work

**Q.** For lipopolysaccharide [LPS], which “LPS concentration of maximum induction for TNFa” value [1] is on record?
**A.** around 0.2 mg/ml

**Q.** And the “LPS concentration able to induce IL-1b” value [2]?
**A.** 0.008 mg/mL

**Q.** With `CC(=O)Oc1ccccc1C(=O)O` [aspirin] as the compound, how does the “Inhibition of PGE2 biosynthesis in cells (in words)” value (from here on “Inhibition of PGE2 biosynthesis”) [3] read?
**A.** inhibited

**Q.** With `COc1ccc2c(c1)c(CC(=O)O)c(C)n2C(=O)c1ccc(Cl)cc1` [indomethacin] as the compound, how does the “Inhibition of PGE2 biosynthesis” value [3] read?
**A.** inhibited

**Q.** Which “Induction of TNF-α, IL-1β, IL-6, and GM-CSF” value [4] does the source give for `CCCCCCCCCCCCCC(=O)N[C@H]1[C@H](OC[C@H]2O[C@H](OC(CC(=O)O)CC(=O)O)[C@H](NC(=O)CCCCCCCCCCCCC)[C@@H](OC(=O)CNC(=O)CCCCCCCCCCC)[C@@H]2O)O[C@H](CO)[C@@H](OP(=O)(O)O)[C@@H]1OC(=O)CNC(=O)CCCCCCCCCCC` [DT-5461a] here?
**A.** induces

**Q.** For `CC(C)Cc1ccc(C(C)C(=O)O)cc1` (stereo not shown) [ibuprofen], which “Inhibition of PGE2 biosynthesis” value [3] is on record?
**A.** inhibited

**Q.** Which “Release of TNF-α, IL-1β, IL-8, IL-6, and G-CSF” value [5] does the source give for `CCCCCCCCCCC[C@@H](O)CC(=O)N[C@H]1[C@@H](OP(=O)(O)O)O[C@H](CO)[C@@H](OC(=O)C[C@H](O)CCCCCCCCCCC)[C@@H]1OC(=O)C[C@H](O)CCCCCCCCCCC` [SDZ MRL 953] here?
**A.** markedly reduced
